Patent US10092568B2, “CBP/Catenin antagonists for enhancing asymmetric division of somatic stem cells” (University of Southern California, priority 2010, dated 2018)
Entries after “also recorded” stand apart in the source; their conditions may differ. Each block holds one compound with its values, some of them ahead of it.

Tests used:
[1] = tested on: PR72/130 subunit of the serine/threonine phosphatase PP2A; assay: Binding to PP2A subunit
Excerpt: (§1) IQ-1. In addition to ICG-001, a screen of a large chemical library for maintenance of pluripotency in mES cells led to the identification of another compound, termed IQ-1 (FIG. 2b). […] I-Q-1 diminishes the interaction between p300 and beta-catenin thereby increasing the CBP/beta-catenin interaction (24).

[2] = tested on: p300/beta-catenin interaction; assay: Disruption of the p300/beta-catenin interaction; assay type: biochemical
Excerpt: Applicant next mapped the binding domains between CBP and beta-catenin, as well as between p300 and beta-catenin. The C-terminal trans-activating region of beta-catenin (647-781) interacted with the same 1-111 amino acids of both CBP and p300 (23). However, only the interaction between CBP and beta-catenin was disrupted by ICG-001, and not the p300/beta-catenin interaction.
as §1

[3] = tested on: mitotic cells in the ventricular zone (VZ); assay: Par3 localization assay of symmetric versus asymmetric divisions in the ventricular zone of embryonic brain; assay type: in vivo, mouse
Excerpt: Taking advantage of the ready uptake and penetration through the placental barrier of applicant's small molecule Wnt modulators, applicant designed a series of experiments to investigate symmetric versus asymmetric divisions in the ventricular zone (VZ) of the brain during mouse embryonic development. Timed pregnant mice were topically treated for various time periods (1-3 days) with DMSO (vehicle control), the CBP/catenin antagonist ICG-001 or the p300/catenin antagonist IQ-1. Using a previously described protocol (56), the localization of […] (Par3) and DNA was examined in mitotic cells in the VZ. Par3 distributes symmetrically in cells that divide symmetrically and asymmetrically in cells that divide asymmetrically, whereas the DNA distributes symmetrically between the 2 cells. Using fluorescence microscopy, the percentage of mitotic cells dividing symmetrically or asymmetrically could be quantified. […] Antagonizing the CBP/catenin interaction with ICG-001 had no apparent effect yielding similarly, approximately 21% asymmetric divisions. […] Importantly, this decrease in asymmetric divisions upon treatment with IQ-1 could be rescued back essentially to control levels (i.e. ˜21%) by treatment with a 2-fold excess of ICG-001. Even further divergence in symmetric versus asymmetric divisions could be seen upon prolonged treatments. For example, treatment with IQ-1 (i.e., antagonizing p300/catenin interaction leading to increased usage of CBP) for 3 days (E13.5-16.5) decreased asymmetric divisions compared to control from 31% to 7%. […] This reporter mouse expresses EGFP, driven by the Tis21 promoter, in cells that have undergone neurogenic differentiative divisions.
For example, Bultje et al. (Bultje R Neuron 63, 189-202, 2009) describe an assay to measure asymmetric distributions in the ventricular zone (vz) to evaluate asymmetric divisions during neurogenesis. Essentially this involves treating the animal (either adult or in utero) for a set period of time with compounds (either p.o., s.c., i.v. or topically) with compounds and then sacrificing the animal and examining the Par3 distribution (e.g., via immunohistochemistry) in mitotic cells vs. DNA distribution (e.g., using DAPI staining) Par3 distributes equally among the two daughter cells during symmetric division and unequally (essentially all in one daughter cell) during asymmetric differentiation.

[4] = tested on: murine embryonic stem cells (mESCs); assay: Maintenance of pluripotency of embryonic stem cells in long-term culture; assay type: cell-based, mouse; conditions: Wnt-dependent
Excerpt: as §1
Similar results upon selectively antagonizing the p300/catenin interaction have also been obtained with human ES cells (32; Hasegawa, K. et al. accepted Stem Cells Translation Medicine 2011). Blocking the CBP/catenin interaction with ICG-001 can prevent the induction of pluripotency, whereas selectively antagonizing the p300/catenin interaction can enhance reprogramming (33; present applicant unpublished data).

[5] = tested on: p300 at Ser-89; assay: Phosphorylation of p300 at Ser-89; assay type: cell-based
Excerpt: as §1

[6] = tested on: skin injury; assay: Skin injury repair in normal mice and hair-less mice models; assay type: in vivo, mouse; conditions: 500 μM in vaseline once a day for eight days, both animal models
Method: The ability of CBP/catenin (e.g., CBP/β-catenin) antagonist to accelerate injured skin repair in normal mice models (having full hair growth and normal fur) and hair-less mice models was tested. In brief, on day 0, the animals were subjected to skin injury in two spots on the back, hind end of each animal. Each skin injury spot was treated with 500 μM of either Vaseline (petrolatum) (vehicle) or Laura-8 in vaseline once a day for eight days.

[7] = tested on: aging mice; assay: Long term topical treatment of aging mice; assay type: in vivo, mouse; conditions: 12 months, from 6 to 18 months of age
Excerpt: Left mouse is control, whereas right mouse received CBP/catenin (e.g., CBP/β-catenin) antagonists (topical Laura-8 as disclosed herein) for 12 months (from 6 months of age to 18 months of age).

[8] = tested on: hair-less mouse model; assay: Hair growth in a hair-less mouse model; assay type: in vivo
Method: The ability of CBP/β-catenin antagonist to stimulate hair growth in a hair-less mouse model was tested. In brief, the animals were treated with either petroleum jelly or Laura-8 for 16 days. In addition, skin samples from each animal were taken and examined for hair-follicle formulation.

[9] = tested on: human skin (surgical waste); assay: Ex vivo human skin assay, qRT-PCR; assay type: cell-based; conditions: 24 hrs; 5 uM ICG-001, 5 uM methylated ICG-001, 1 ug/ml RA
Method: Methods. Ex Vivo human skin assay culture conditions were based upon a paper by Varani J et al Experimental and Molecular Pathology, 2004.
Briefly, human skin (surgical waste from plastic surgery procedures) was obtained and the subcutaneous layer of fat was trimmed manually with a scalpel. The skin was then cut into small fragments about 2 mm square and placed in 6 well plates. 1 ml of keratinocyte culture medium (Gibco 10724-011) with 1% P/S (penstrep antibiotic) was added to each well. The epidermis, bathed in media was placed facing up. On the next day (overnight culture in the media above), the skin fragments were transferred to fresh wells that contained either 5 uM ICG-001, 5-uM methylated ICG-001 or 1 ug/ml of retinoic acid (RA). After 24 hrs, skin samples in culture were removed for RNA isolation and qRT-PCR analysis of genes of interest (e.g., elastin (a gene involved in skin appearance and pliability (e.g., wrinkling)) and aquaporin 1, which is involved with hydration.

binding to PR72/130 subunit of PP2A [1]: binds
Structure (SMILES): CC(=O)c1ccc(N=NC(C(N)=O)=C2NC(C)(C)Cc3ccccc32)cc1 [IQ-1, reference compound]
p300/beta-catenin interaction [2]: diminishes
asymmetric divisions in the VZ ([3]; 3 days, E13.5-16.5, control 31%): 7%
number of symmetric differentiative divisions ([3]; normal neural stem cells): increase
number of asymmetric divisions compared to vehicle control ([3]; topical or oral administration to pregnant mice): decreases
asymmetric divisions in the VZ ([3]; topical, 1 day, E13.5 to 14.5, DMSO approximately 21%): approximately 9%
pluripotency of mESCs [4]: maintains the pluripotency; also recorded: prevents spontaneous differentiation
phosphorylation of p300 at Ser-89 [5]: decreased phosphorylation

normal stem cell niche [7]: does not deplete
Structure (SMILES): CCCCCCCCCCCC(=O)Oc1ccc(C[C@H]2C(=O)N(Cc3cccc4ccccc34)C[C@@H]3N(C(=O)NCc4ccccc4)CCC(=O)N32)cc1 [Laura-8]
skin healing [6]: significantly accelerated
hair growth ([8]; 16 days, versus petroleum jelly): significant hair growth
new hair-follicle formation ([8]; skin pathology): new hair-follicles were formed; also recorded: substantial new hair-follicle formation

Structure (SMILES): C[C@H]1C2N(C(=O)NCc3ccccc3)CCC(=O)N2[C@@H](Cc2ccc(O)cc2)C(=O)N1Cc1cccc2ccccc12 (some centres unmarked) [Me-ICG-001]
expression of aquaporin 1 [9]: larger increase
expression of elastin [9]: larger increase
